Where “and” joins values, the source holds several entries; their conditions need not be identical. Equal entries are not always repeated.
Assay: Penetration depth of topically applied antibiotics into corneal tissue, by excimer laser ablation and laser-induced fluorescence spectroscopy with PLS model
Type: in vitro ADME
Details: for Antibiotic Penetration Depth (Mean): rinsed, mean of cases (SD in text)
Method: The second set of experiments was performed on fresh rabbit corneas. All experiments were performed in compliance with the Association for Research in Vision and Ophthalmology (ARVO) Statement on the Use of Animals in Research. Approval was obtained from the University of California, Irvine, Institutional Care and Use Committee (IACUC) and the IACUC guidelines regarding animal experimentation were followed. New Zealand White rabbit heads were obtained from an abattoir and kept at 4° C. until eyes were enucleated within 7-hours of death to maximize preservation of the corneal epithelium. The globes were stored in a moist chamber at 4° C. for approximately 4 hours until time of use.
The main component, mounted on or above an optical table 21, is the Nidek EC-5000 laser system 22 (Model EC-5000, Nidek Technologies, Inc., Japan) operating at 193 nm. The average laser energy is about 16.4 mJ/pulse measured over a period of 10-s while pulsing at 4 Hz. The eye-fixation LED and the aiming He—Ne laser within the laser system 22 are disabled to avoid their interference with the measured corneal autofluorescence.
During the experiments, the laser 22 is operated to emit a collimated laser beam 23 in the direction of a cornea 24. The laser 22 is operated in its manual mode to pulse the beam 23 at 4 Hz and generate a rectangular spot size of about 2×4.5-mm. The BNC cable connecting the control circuitry of the EC-5000 to the OEM […] excimer laser (Lambda Physik, Fort Lauderdale, Fla.) is tapped using a BNC T-adapter. […]
Each pulse of radiation emitted from the laser 22 ablates a thin layer of the cornea 24. The laser-induced fluorescence (LIF) 32 produced by the ablated cornea 24 is reflected by a 2″ off-axis parabolic mirror 34 (Al, SiO-protected Model A8037-331, Janos Technology Inc., Townshend, Vt.) mounted on a mirror holder 36 that is, in turn, mounted on an XYZ translator 38. […] With each trigger pulse, the spectrograph 26 measures and auto-saves the fluorescence spectrum generated by the corresponding laser pulse.
The cornea 24 was placed epithelium-up (with the exception of the cornea in Example 4) on a circular aluminum tray 42. […] The laser 22 was set to ablate the cornea at 4-Hz for a period of about 7-minutes and the fluorescence spectrum generated by each pulse was measured and saved. […]
In each set of experiments, the measured fluorescence spectra are corrected for dark current and background light, and each spectrum is smoothed using a 5-point moving average window. The series of spectra measured from a given cornea are normalized by the peak value of the first spectrum in the series (i.e. the spectrum of the corneal surface). […]

Compound | Antibiotic Penetration Depth (individual cases) (enucleated rabbit globes, topical 4 drops for 10 min, then 3 drops for 5 min, rinsed with lactated Ringer's, single cornea per case) | Antibiotic Penetration Depth (Mean) (enucleated rabbit globes, topical 4 drops for 10 min, then 3 drops for 5 min) [μm] | Antibiotic Penetration Depth (Mean) (enucleated rabbit globes, topical 4 drops for 10 min, then 3 drops for 5 min, listed as ciprofloxacin) [μm] | Penetration of the corneal epithelium (in words)
O=C(O)c1cn(C2CC2)c2cc(N3CCNCC3)c(F)cc2c1=O [Ciprofloxacin, ciprofloxacin] | 0.6 μm and 1.5 μm and 0.9 μm | 1.0 | 1.0±0.5 | –
COc1c(N2CCNC(C)C2)c(F)cc2c(=O)c(C(=O)O)cn(C3CC3)c12 (stereo not shown) [Gatifloxacin, gatifloxacin] | – | – | – | penetrate the epithelium significantly more than ciprofloxacin

— patent publication US7336989B2, “System and method for quantitative or qualitative measurement of exogenous substances in tissue and other materials using laser-induced fluorescence spectroscopy” (priority 2002, dated 2008)
